These results are taken from patent publication US9581586B2, “Approach to asthma inhaler compliance using breath measurement of tetrafluoroethane” (The Regents of the University of California, priority 2014, dated 2017).

A short description of data set [1]: Exhaled breath HFA-134a levels after asthma inhaler administration (GC with MSD). The note with it: n=1, Flovent HFA one puff per day for nine days, last ICS approximately 24 hr before sampling. The format is in vivo, human.
The nature of data set [2]: Three compartment pharmacokinetic analysis of HFA elimination in breath after Flovent HFA. The format is in vivo, human. Particulars: for half-life: human, exhaled breath, inhaled. As to the method:
24 hr, 36 hr, and 48 hr—post Flovent HFA administration (red and blue open circle). All sample collections were held open space. […] The calculated half-lives are 0.97, 20.7, and 442 minutes for subject #1 and 0.92, 27.6, and 355 minutes for subject #2.
As further disclosed in FIG. 5, the inventors re-defined the experiment and have performed a compartmental pharmacokinetic analysis of HFA elimination kinetics using HFA at 5 min, 7 min, 10 min, 15 min, 30 min, 1 hr, 2 hr, 3 hr, 4 hr, 6 hr, 8 hr, 12 hr. 24 hr, 36 hr, and 48 hr—post Flovent HFA administration. The HFA elimination could be modeled using three compartment pharmacokinetic analysis (Eq1). […] The elimination rate constant in each compartment, L1, L2, and L3, respectively are −0.1970, −0.0183, and −0.0013 for subject #1 and −0.1720, −0.0142, and −0.0018 for subject #2. The corresponding half-lives are 0.97, 20.7, and 442 minutes for subject #1 and 0.92, 27.6, and 355 minutes for subject #2.

For data set [3] the following is noted: 500 ppm of HFA-134a for two hours; cited from earlier work.
For data set [4] the following is noted: in vivo; cited from earlier work.
Data set [5] is described as follows: Exhaled breath HFA-134a levels after asthma inhaler administration (GC with MSD). The format is in vivo, human. As to the method:
Study participants were randomly assigned to inhaled corticosteroid (ICS, Flovent HFA, 220 mcg, n=5) or short acting bronchodilator (Albuterol, Proventil HFA, n=5). Baseline exhaled breath sampling and standard lung function test were performed prior to the medication dispersion. After baseline measurements, the participants inhaled two puffs of either Flovent HFA (Glaxo Smith Kline) or Proventil HFA (Merck & CO., INC) using a spacer (AeroChamberPlus Flow-Vu, Monaghan). Breath sampling and lung function test were performed immediately after inhalation (<5 min), and at 2, 4, 6, 8, 24, and 48 hours post administration (see FIG. 3).
Exhaled breath samples were collected in evacuated electro-polished stainless steel canisters (volume=1.9 L). The analytic system used in this study is similar to the system described in Colman et al., 2001 (18). Briefly, 790 mL of the collected air sample is pre-concentrated in a stainless steel loop filled with glass beads and submerged in liquid nitrogen to remove the nitrogen, oxygen and argon present in the sample. The sample is re-vaporized using hot water (at approximately 80° C.) and split into five different column/detector combinations housed in three gas chromatographs (GCs) using UHP helium as the carrier gas: (1) DB-1 column (J&W; 60 m, 0.32 mm I.D., 1 μm film thickness) output to a flame ionization detector (FID); (2) DB-5 column (J&W; 30 m, 0.25 mm I.D., 1 vim film thickness) connected in series to a RESTEK 1701 column (5 m, 0.25 mm I.D., 0.5 μm film thickness) and output to an electron capture detector (ECD); (3) RESTEK 1701 column (60 m, 0.25 mm I.D., 0.50 μm film thickness) output to an ECD; (4) PLOT column (J&W GS-Alumina; 30 m, 0.53 mm I.D.) connected in series to a DB-1 column (J&W; 5 m, 0.53 mm I.D., 1.5 μm film thickness) and output to an FID; (5) DB-5 ms column (J&W; 60 m, 0.25 mm I.D., 0.5 μm film thickness) output to a quadrupole mass spectrometer detector (MSD, HP 5973). The MSD is set to operate in selected ion monitoring (SIM) mode with one ion chosen to quantify each compound in order to achieve the maximum selectivity and to avoid potential interferences. All gas chromatographs and detectors used in this study are manufactured by Hewlett Packard. The analytical system allows for the identification and quantification of different classes of volatile organic compounds (VOCs). […] Simultaneously, room air samples were also collected in the same location to quantify corresponding ambient levels of HFA-134a.

For data set [6] the following is noted: metabolite of HFA-134a, only in some urine samples at trace levels; cited from earlier work.
Where [7] appears, read: Albuterol subject #3 (Proventil HFA).

Where two headings read alike, the source gives them in different places.

`FCC(F)(F)F` [HFA-134a, 1,1,1,2-tetrafluoroethane]: in data set [1], the “Baseline breath HFA level of symptomatic asthma subject on ICS” value was 710 ppt. Further, the half-life (as a rule, the time needed for the level to fall by half in the phase considered) in data set [2] (subject #1, read-out: Half-life corresponding to L1) came out at 0.97 min; in data set [2] (subject #1, read-out: Half-life corresponding to L2) it was 20.7 min; in data set [2] (subject #1, read-out: Half-life corresponding to L3), 442 min; in data set [2] (subject #2, read-out: Half-life corresponding to L1) it was 0.92 min; in data set [2] (subject #2, read-out: Half-life corresponding to L2), 27.6 min; in data set [2] (subject #2, read-out: Half-life corresponding to L3) it was 355 min. Further, the “Elimination rate constant L1” value in data set [2] (subject #1, post Flovent HFA) was −0.1970 reciprocal minutes; in data set [2] (subject #2, post Flovent HFA), −0.1720 reciprocal minutes. Further, the “Elimination rate constant L2” value in data set [2] (subject #1, post Flovent HFA) was −0.0183 reciprocal minutes; in data set [2] (subject #2, post Flovent HFA), −0.0142 reciprocal minutes. The “Elimination rate constant L3” value is on record as −0.0013 reciprocal minutes in data set [2] (subject #1, post Flovent HFA) and −0.0018 reciprocal minutes in data set [2] (subject #2, post Flovent HFA). Also, the “Decrease of exhaled breath HFA-134a compared with HFA-134a in plasma when exposure stopped” value in data set [3] was “almost an order of magnitude faster”. The “Exhaled breath HFA-134a the day after the exposure” value in data set [3] is recorded as “not-detectable”. Moreover, the “HFA-134a levels in blood samples” value in data set [4] is “below 10 % of the initially administered concentration”. Moreover, the “Exhaled HFA-134a levels at the 2-hr time point” value in data set [5] (2 hr post inhaler administration, range over subjects) was 28000-266000 pptv. Moreover, the “HFA concentration in breath at 48 hr post typical asthma inhaler administration” value in data set [5] (48 hr post) is “still detectable”. In addition, the “Breath HFA-134a 48 hr post medication” value in data set [5] (setting [7]) is on record as 224 pptv. Moreover, in data set [5] (setting [7]), the “Breath HFA-134a right after medication” value came to 6.2 ppmv. The “Breath HFA-134a at 48 hour time point” value in data set [5] (ICS subject #3 (Flovent HFA)) was determined as 287 pptv; in data set [5] (ICS subject #4 (Flovent HFA)), 351 pptv. Besides, the entries for the “Breath HFA-134a right after drug administration” value in data set [5] (ICS subject #3 (Flovent HFA)) and in data set [5] (ICS subject #4 (Flovent HFA)) were 179 ppmv and 48 ppmv, respectively. Further, the “Time HFA can be measured in exhaled breath after a typical single inhalation” value in data set [5] (down to parts-per-trillion levels) is “at least 48 hours”. Also, the “HFA-134a breath levels immediately after inhalation” value in data set [5] (healthy controls, Flovent HFA or Proventil HFA, immediately after inhalation) is recorded as 300×10^6 pptv. Besides, the “Time HFA is detectable above ambient levels following an inhalation” value in data set [5] (healthy participants) is “up to 24 hours”. Besides, in data set [5] (healthy participants, two puffs of asthma inhaler, right after inhalation), the “Exhaled breath HFA-134a levels right after inhalation (range over subjects)” value is listed as 3-300 ppmv. The “Mean (SD) levels of HFA-134a in exhaled breath at 48-hr post inhaler administration” value in data set [5] (seven of ten healthy participants, 48 hr post) is on record as 260 (138) pptv. For the same compound, in data set [5] (similar to room HFA-134a levels, also at baseline), the “Breath HFA-134a levels at 48 hours post inhaler administration” value was “approximately 200 pptv”.
Regarding `O=C(O)C(F)(F)F` [trifluoroacetic acid], the “Trifluoroacetic acid detected in urine samples” value in data set [6] was “less than 0.0005 % of the administered dose”.
